Experiment [1] concerns the target Cyclin-dependent kinase 14 (Homo sapiens) (UniProt O94921). Particulars: at 10 µM.
Experiment [2] concerns the target T1, Serine/threonine-protein kinase LATS1 (Homo sapiens) (UniProt O95835).
T1 sequence (whole entry): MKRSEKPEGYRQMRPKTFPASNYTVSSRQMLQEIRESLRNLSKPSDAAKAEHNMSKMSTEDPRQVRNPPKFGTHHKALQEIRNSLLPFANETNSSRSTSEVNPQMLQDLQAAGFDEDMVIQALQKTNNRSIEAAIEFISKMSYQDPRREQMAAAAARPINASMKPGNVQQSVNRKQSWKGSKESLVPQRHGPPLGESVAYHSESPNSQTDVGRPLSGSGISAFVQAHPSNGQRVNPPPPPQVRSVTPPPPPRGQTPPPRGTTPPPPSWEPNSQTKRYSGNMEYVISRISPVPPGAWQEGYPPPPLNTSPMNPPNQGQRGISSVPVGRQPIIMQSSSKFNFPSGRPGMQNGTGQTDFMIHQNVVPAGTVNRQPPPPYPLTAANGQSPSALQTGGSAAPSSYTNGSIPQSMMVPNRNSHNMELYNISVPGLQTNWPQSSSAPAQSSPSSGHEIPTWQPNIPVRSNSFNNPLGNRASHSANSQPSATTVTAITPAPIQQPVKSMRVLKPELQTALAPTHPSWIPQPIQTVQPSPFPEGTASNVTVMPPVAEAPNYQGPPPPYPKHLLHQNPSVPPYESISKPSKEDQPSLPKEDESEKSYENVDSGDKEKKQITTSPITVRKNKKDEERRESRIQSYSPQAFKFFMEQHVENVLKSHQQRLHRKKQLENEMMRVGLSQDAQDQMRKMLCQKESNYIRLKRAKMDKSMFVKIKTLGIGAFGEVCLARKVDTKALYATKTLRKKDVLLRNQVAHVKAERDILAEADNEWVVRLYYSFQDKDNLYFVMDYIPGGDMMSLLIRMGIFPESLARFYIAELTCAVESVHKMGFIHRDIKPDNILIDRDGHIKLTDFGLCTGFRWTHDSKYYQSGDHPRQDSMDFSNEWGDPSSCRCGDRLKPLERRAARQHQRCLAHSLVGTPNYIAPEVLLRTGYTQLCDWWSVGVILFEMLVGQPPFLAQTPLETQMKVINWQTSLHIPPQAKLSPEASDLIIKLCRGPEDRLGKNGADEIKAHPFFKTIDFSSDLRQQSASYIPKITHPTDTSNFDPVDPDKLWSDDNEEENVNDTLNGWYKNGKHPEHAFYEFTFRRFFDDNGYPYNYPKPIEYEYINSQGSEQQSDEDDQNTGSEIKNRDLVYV
Briefly: Selectivity interaction (KinomeScan (DiscoverX)) EUB0000229b LATS1. Particulars: at 10 µM.

Experiment [3] addresses T2, Tyrosine-protein kinase receptor TYRO3 (Homo sapiens) (UniProt Q06418).
T2 sequence (whole entry): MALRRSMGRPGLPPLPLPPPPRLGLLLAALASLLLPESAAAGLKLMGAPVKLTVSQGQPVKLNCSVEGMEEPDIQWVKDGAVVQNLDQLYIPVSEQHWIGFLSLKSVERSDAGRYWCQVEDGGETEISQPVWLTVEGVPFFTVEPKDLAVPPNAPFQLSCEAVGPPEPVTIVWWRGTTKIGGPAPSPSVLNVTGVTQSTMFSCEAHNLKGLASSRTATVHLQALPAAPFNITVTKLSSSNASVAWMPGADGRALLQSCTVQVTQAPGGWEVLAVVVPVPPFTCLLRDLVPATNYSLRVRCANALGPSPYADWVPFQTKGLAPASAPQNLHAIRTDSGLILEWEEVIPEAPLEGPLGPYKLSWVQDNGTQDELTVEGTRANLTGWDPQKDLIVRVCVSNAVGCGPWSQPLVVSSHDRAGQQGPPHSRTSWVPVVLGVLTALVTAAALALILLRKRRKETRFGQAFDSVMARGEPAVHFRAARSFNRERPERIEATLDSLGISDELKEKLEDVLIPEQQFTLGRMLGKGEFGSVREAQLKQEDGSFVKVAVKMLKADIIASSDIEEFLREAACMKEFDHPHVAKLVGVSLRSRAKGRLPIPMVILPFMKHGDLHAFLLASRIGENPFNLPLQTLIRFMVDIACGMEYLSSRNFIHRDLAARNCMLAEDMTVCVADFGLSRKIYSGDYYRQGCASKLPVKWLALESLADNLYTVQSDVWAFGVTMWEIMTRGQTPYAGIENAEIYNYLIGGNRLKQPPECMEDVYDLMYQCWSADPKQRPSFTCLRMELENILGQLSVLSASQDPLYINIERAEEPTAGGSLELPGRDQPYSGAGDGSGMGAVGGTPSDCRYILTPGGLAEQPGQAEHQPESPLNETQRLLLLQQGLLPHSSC
Description: Selectivity interaction (KinomeScan (DiscoverX)) EUB0000229b TYRO3. Particulars: at 10 µM.

Experiment [4] has as its target T3, Tyrosine-protein kinase ZAP-70 (Homo sapiens) (UniProt P43403).
T3 sequence (whole entry): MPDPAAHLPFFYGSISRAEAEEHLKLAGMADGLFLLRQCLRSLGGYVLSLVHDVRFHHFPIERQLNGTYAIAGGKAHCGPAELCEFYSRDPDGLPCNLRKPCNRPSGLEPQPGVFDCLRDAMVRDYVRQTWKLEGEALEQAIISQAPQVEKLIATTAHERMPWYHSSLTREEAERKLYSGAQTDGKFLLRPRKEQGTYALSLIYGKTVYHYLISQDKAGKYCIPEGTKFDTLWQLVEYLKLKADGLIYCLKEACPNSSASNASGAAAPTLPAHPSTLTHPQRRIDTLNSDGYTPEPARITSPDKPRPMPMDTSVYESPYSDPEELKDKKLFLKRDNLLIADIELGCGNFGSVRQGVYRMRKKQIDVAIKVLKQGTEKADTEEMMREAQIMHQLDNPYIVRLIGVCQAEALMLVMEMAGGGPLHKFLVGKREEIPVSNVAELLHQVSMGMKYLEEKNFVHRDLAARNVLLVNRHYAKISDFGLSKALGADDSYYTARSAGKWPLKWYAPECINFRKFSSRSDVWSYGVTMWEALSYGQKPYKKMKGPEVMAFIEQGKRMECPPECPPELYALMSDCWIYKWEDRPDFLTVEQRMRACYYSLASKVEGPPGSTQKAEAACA
Description: Selectivity interaction (KinomeScan (DiscoverX)) EUB0000229b ZAP70. Particulars: at 10 µM.

Experiment [5] has as its target Cholecystokinin receptor type A (Homo sapiens, UniProt P32238). Briefly: Selectivity interaction (Cholecystokinin A receptor binding assay, human recombinant ) EUB0000877a CCKAR.

Cholecystokinin receptor type A, sequence (P32238 whole entry): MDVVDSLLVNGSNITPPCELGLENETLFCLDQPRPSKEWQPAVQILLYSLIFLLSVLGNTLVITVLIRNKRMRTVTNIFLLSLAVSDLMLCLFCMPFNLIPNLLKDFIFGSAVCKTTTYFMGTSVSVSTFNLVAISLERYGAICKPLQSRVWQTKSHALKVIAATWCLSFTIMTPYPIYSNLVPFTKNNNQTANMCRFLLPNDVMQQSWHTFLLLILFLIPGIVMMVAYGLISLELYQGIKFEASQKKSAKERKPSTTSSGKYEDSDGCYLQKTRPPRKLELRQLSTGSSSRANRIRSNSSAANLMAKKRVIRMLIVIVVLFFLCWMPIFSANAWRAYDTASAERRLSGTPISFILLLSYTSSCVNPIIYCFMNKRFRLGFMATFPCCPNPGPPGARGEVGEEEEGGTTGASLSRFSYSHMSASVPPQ
Cyclin-dependent kinase 14 (Homo sapiens), sequence (O94921 whole entry): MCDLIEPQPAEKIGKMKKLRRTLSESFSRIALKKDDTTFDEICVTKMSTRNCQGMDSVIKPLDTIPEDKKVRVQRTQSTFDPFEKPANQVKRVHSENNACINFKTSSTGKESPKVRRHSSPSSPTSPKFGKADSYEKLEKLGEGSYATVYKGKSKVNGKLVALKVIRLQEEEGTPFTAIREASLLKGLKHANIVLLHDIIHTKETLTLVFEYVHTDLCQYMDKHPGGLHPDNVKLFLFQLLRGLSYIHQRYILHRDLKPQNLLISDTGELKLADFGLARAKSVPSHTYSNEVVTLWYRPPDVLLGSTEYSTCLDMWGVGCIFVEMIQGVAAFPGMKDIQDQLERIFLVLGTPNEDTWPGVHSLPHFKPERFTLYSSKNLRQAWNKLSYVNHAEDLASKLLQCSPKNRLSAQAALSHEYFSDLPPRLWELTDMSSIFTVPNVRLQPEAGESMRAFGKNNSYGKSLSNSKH

In experiment [1], `Cc1cc([C@@H](C)Nc2ccccc2C(=O)O)c2nc(N3CCOCC3)cc(=O)n2c1` [AZD-6482] gave a % of control of 100%.

As to `COc1cc(N(C)c2ccnc3ccc(C(F)(F)F)cc23)cc(OC)c1OC`, the % binding in experiment [2] is 100%; in experiment [3] it was 80%; in experiment [4], 100%.

Broadly, the IC50 is the concentration needed to halve the response being measured. `CCC(=O)N1CC[C@H](Nc2ncnc3c2CN(c2cnc(OC)c(C(F)(F)F)c2)CC3)C1` [LENIOLISIB]: the IC50 in experiment [5] was > 30 µM.
